In PubChem BioAssay (NCI):
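Compound exposure: 48 hours, 5 concentrations, 96-well plates. Abbreviation: GI50, concentration required for 50% inhibition of growth. TGI denotes the concentration required for complete inhibition of growth.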

Columns and labels:
Assay in all cases: DTP human tumour cell line panel, 48 h
T-47D breast = test system: T-47D breast
MDA-MB-435 = test system: MDA-MB-435
MALME-3M melanoma = test system: MALME-3M melanoma
BT-549 breast = test system: BT-549 breast
M14 melanoma = test system: M14 melanoma
SF-268 CNS = test system: SF-268 CNS
HCT-15 colon = test system: HCT-15 colon
HCT-116 colon = test system: HCT-116 colon

| SMILES | GI50 (T-47D breast) | TGI (T-47D breast) | GI50 (MDA-MB-435) | TGI (MDA-MB-435) | GI50 (MALME-3M melanoma) | TGI (MALME-3M melanoma) | GI50 (BT-549 breast) | TGI (BT-549 breast) | GI50 (M14 melanoma) | TGI (M14 melanoma) | GI50 (SF-268 CNS) | TGI (SF-268 CNS) | GI50 (HCT-15 colon) | TGI (HCT-15 colon) | GI50 (HCT-116 colon) | TGI (HCT-116 colon) |
| --- | --- | --- | --- | --- | --- | --- | --- | --- | --- | --- | --- | --- | --- | --- | --- | --- |
| C#C[C@]1(O)CC[C@H]2[C@@H]3CC=C4c5nc(Nc6ccccn6)sc5CC[C@]4(C)[C@H]3CC[C@@]21C | 1810 nM | 5.98 µM | 1550 nM | 4.45 µM | 677 nM | 2.32 µM | 692 nM | 2.82 µM | 1140 nM | 3.21 µM | 1850 nM | 6.87 µM | 1270 nM | 2.94 µM | 1120 nM | 2.73 µM |
| CC1(C)CCC(C)(C)c2cc(C(=O)Nc3ccc(C(=O)O)cc3)ccc21 |  | > 79.4 µM |  | > 74.3 µM |  | > 100 µM |  | 73 µM |  | 51.1 µM |  | > 87.4 µM |  | 63 µM |  | 37.4 µM |
| N#Cc1ccc(-c2nc(C#N)c(N)o2)cc1 |  | > 10 µM |  | > 10 µM |  | > 10 µM |  | > 10 µM |  | > 10 µM |  | > 10 µM |  | > 10 µM |  | > 10 µM |
| CC(C)c1ccc2nc3ccc(C(=O)NCCN(C)C)cn3c(=O)c2c1 |  | 38.4 µM |  |  |  | 23.1 µM |  | 29.6 µM |  | 28.3 µM |  | 36.3 µM |  | 28.5 µM |  | 27.7 µM |
| CC1(C)N=C(N)N=C(N)N1c1ccc(CCc2ccccc2)c(Cl)c1 | 698 nM | 13 µM | 52.8 nM | 15.7 µM | 728 nM | 19 µM | 1110 nM | 12.5 µM | 124 nM | 13.7 µM | 55.2 nM | 14.3 µM | 2550 nM | > 100 µM | 34.7 nM | 14 µM |
| Fc1cccc(COc2ccc(Nc3ncnc4sc(-c5ccco5)cc34)cc2Cl)c1 | > 14500 nM | > 25 µM | > 25000 nM | > 25 µM | > 25000 nM | > 25 µM | > 25000 nM | > 25 µM | > 25000 nM | > 25 µM | > 25000 nM | > 25 µM | > 25000 nM | > 25 µM | > 25000 nM | > 25 µM |
| COc1ccc(C(=O)N2c3ccccc3Sc3ccccc32)c(F)c1 | 639 nM | > 100 µM |  |  | 16200 nM | > 100 µM | 676 nM | > 100 µM | 371 nM | > 100 µM | 10700 nM | > 100 µM | 419 nM | > 100 µM | 393 nM | > 100 µM |
| CC1=C(C(=O)NC2CCCCC2)CC(C(=O)NC2CCCCC2)=C(C)N1 |  | > 100 µM |  | > 100 µM |  | > 100 µM |  | > 100 µM |  | > 100 µM |  | > 100 µM |  | > 100 µM |  | > 100 µM |
| COc1cc(-c2csc(NC(=O)c3cc(C(F)(F)F)cc(C(F)(F)F)c3)n2)cc(OC)c1OC | 1840 nM | 6.29 µM | 2670 nM | > 100 µM |  |  | 2160 nM | 6.66 µM | 2910 nM | > 100 µM | 3640 nM | > 100 µM | 2710 nM | > 100 µM |  |  |
| O=c1oc2ccccc2c(O)c1C=NC(=S)c1ccncc1 |  | > 100 µM |  | > 100 µM |  |  |  | 94 µM |  | > 100 µM |  |  |  | > 100 µM |  | > 100 µM |
| Nc1cc2c3c(cccc3c1)NC2=O |  | > 100 µM |  | > 100 µM |  | > 100 µM |  |  |  | > 100 µM |  | > 100 µM |  | > 100 µM |  | > 100 µM |
| COc1ccc2nc(-c3ccccc3)cc(Nc3cccc(/C(C)=N\O)c3)c2c1 | 4010 nM | > 100 µM | 2500 nM | 7.96 µM | 4290 nM | 20.2 µM | 32800 nM | > 100 µM | 5040 nM | > 100 µM | 3340 nM | 9.06 µM | 29800 nM | > 100 µM | 2580 nM | > 100 µM |
| COc1ccc(-n2nnc3c(sc4ccccc43)c2=O)cc1 |  |  | > 100000 nM | > 100 µM |  |  | > 100000 nM | > 100 µM | > 100000 nM | > 100 µM | > 100000 nM | > 100 µM | > 100000 nM | > 100 µM |  |  |
| CON(C)C(=O)C(C)NC(=O)OCc1ccccc1 (stereo not given) |  |  |  | > 100 µM |  | > 100 µM |  | > 100 µM |  | > 100 µM |  | > 100 µM |  | > 100 µM |  | > 100 µM |
| C[C@]12CC[C@@H]3c4ccc(O)c([N+](=O)[O-])c4CC[C@H]3[C@@H]1CC[C@@H]2NS(=O)(=O)c1ccc(C(F)(F)F)cc1 | 2450 nM | 7.22 µM | 1740 nM | 3.63 µM | 1990 nM | 5.41 µM | 1570 nM | 3.03 µM | 1920 nM | 3.91 µM | 2280 nM | 7.55 µM | 1710 nM | 3.58 µM | 1600 nM | 2.99 µM |
| Cc1cccc(NC(=O)c2sc3nc4c(cc3c2N)CCCC4)c1C | 505 nM | > 100 µM | 115 nM | 0.391 µM | 614 nM | > 100 µM | 2510 nM | > 100 µM | 355 nM | > 100 µM | 1030 nM | > 100 µM | 363 nM | > 100 µM | 435 nM | > 100 µM |
| C/C(=N\O)c1ccc(Nc2cc(-n3nnc4ccccc43)nc3ccccc23)cc1 | 8230 nM | > 34.7 µM | 8860 nM | > 28.3 µM | 11200 nM | 36.1 µM | 3770 nM | 14.8 µM | 5000 nM | 14.9 µM | 9970 nM | > 41.9 µM | 4170 nM | 20.9 µM | 7640 nM | 23.7 µM |
| C[n+]1cc2c3c(ccc2c2ccc4cc5c(cc4c21)OCO5)OCO3 | 1420 nM | 3.13 µM | 317 nM | 1.11 µM | 564 nM | 1.83 µM | 784 nM | 2.08 µM | 412 nM | 1.6 µM | 489 nM | 1.7 µM | 631 nM | 2.29 µM | 227 nM | 0.593 µM |
